# Assay results published in PubChem BioAssay AID248 (DTP/NCI, 2004).
# “And” between values parts separate entries of the source, which are not always exact repeats. Equal values may be shown once. Toxic doses and inconclusive results are not listed.
# Test system: L1210 leukemia ip in BDF1 mice, survival T/C
# Assay: NCI In Vivo Anticancer Drug Screen. Data for tumor model L1210 Leukemia (intraperitoneal) in B6D2F1 (BDF1) mice
# Conditions: endpoint: mean survival time, higher = longer survival
# How it was run: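 Survival endpoint. Drug-treated group vs vehicle group, expressed as T divided by C. Tumor passaged by transplantation.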
structure (smiles),measurement,setting,value
COC(C(=O)C(O)C(C)O)C1Cc2cc3cc(OC4CC(OC(C)=O)C(OC5CC(O)C(OC)C(C)O5)C(C)O4)cc(O)c3c(O)c2C(=O)C1OC1CC(OC2CC(OC3CC(C)(O)C(OC(=O)C(C)C)C(C)O3)C(O)C(C)O2)C(O)C(C)O1 (stereo not drawn),T/C,"dose: 0.09 mg/kg/injection, schedule: Q01DX017 (ip), vehicle: carboxymethylcellulose (CMC)",97 % of control
same,T/C,"dose: 0.18 mg/kg/injection, schedule: Q01DX017 (ip), vehicle: carboxymethylcellulose (CMC)",109 % of control
same,T/C,"dose: 0.18 mg/kg/injection, schedule: Q## X005 (ip), vehicle: carboxymethylcellulose (CMC)",98 % of control
same,T/C,"dose: 0.2 mg/kg/injection, schedule: Q01DX015 (ip), vehicle: carboxymethylcellulose (CMC)",102 % of control
same,T/C,"dose: 0.24 mg/kg/injection, schedule: Q## X024 (ip), vehicle: carboxymethylcellulose (CMC)",92 % of control
same,T/C,"dose: 0.25 mg/kg/injection, schedule: Q01DX009 (ip), vehicle: other",103 % of control
same,T/C,"dose: 0.25 mg/kg/injection, schedule: Q## X003 (ip), vehicle: carboxymethylcellulose (CMC)",94 % of control
same,T/C,"dose: 0.25 mg/kg/injection, schedule: Q#A X034 (ip), vehicle: carboxymethylcellulose (CMC)",119 % of control
same,T/C,"dose: 0.37 mg/kg/injection, schedule: Q01DX001 (ip), vehicle: carboxymethylcellulose (CMC)",101 % of control
same,T/C,"dose: 0.37 mg/kg/injection, schedule: Q01DX010 (ip), vehicle: saline",116 % of control
same,T/C,"dose: 0.37 mg/kg/injection, schedule: Q02DX005 (ip), vehicle: saline",101 % of control
same,T/C,"dose: 0.37 mg/kg/injection, schedule: Q02DX009 (ip), vehicle: carboxymethylcellulose (CMC)",121 % of control
same,T/C,"dose: 0.37 mg/kg/injection, schedule: Q## X003 (ip), vehicle: saline",98 % of control
same,T/C,"dose: 0.37 mg/kg/injection, schedule: Q## X005 (ip), vehicle: carboxymethylcellulose (CMC)",107 % of control
same,T/C,"dose: 0.4 mg/kg/injection, schedule: Q01DX015 (ip), vehicle: carboxymethylcellulose (CMC)",120 % of control
same,T/C,"dose: 0.48 mg/kg/injection, schedule: Q## X024 (ip), vehicle: carboxymethylcellulose (CMC)",89 % of control
same,T/C,"dose: 0.5 mg/kg/injection, schedule: Q01DX001 (ip), vehicle: saline",103 % of control
same,T/C,"dose: 0.5 mg/kg/injection, schedule: Q01DX005 (ip), vehicle: carboxymethylcellulose (CMC)",106 % of control
same,T/C,"dose: 0.5 mg/kg/injection, schedule: Q01DX006 (iv), vehicle: carboxymethylcellulose (CMC)",104 % of control
same,T/C,"dose: 0.5 mg/kg/injection, schedule: Q01DX009 (ip), vehicle: carboxymethylcellulose (CMC)",113 % of control
same,T/C,"dose: 0.5 mg/kg/injection, schedule: Q01DX009 (ip), vehicle: other",122 % of control
same,T/C,"dose: 0.5 mg/kg/injection, schedule: Q01DX015 (im), vehicle: carboxymethylcellulose (CMC)",97 % of control
same,T/C,"dose: 0.5 mg/kg/injection, schedule: Q01DX015 (sc), vehicle: carboxymethylcellulose (CMC)",95 % of control
same,T/C,"dose: 0.5 mg/kg/injection, schedule: Q01DX Z (ip), vehicle: saline",123 % of control
same,T/C,"dose: 0.5 mg/kg/injection, schedule: Q## X003 (ip), vehicle: carboxymethylcellulose (CMC)",93 % of control
same,T/C,"dose: 0.75 mg/kg/injection, schedule: Q01DX001 (ip), vehicle: carboxymethylcellulose (CMC)",106 % of control
same,T/C,"dose: 0.75 mg/kg/injection, schedule: Q02DX005 (ip), vehicle: saline",116 % of control
same,T/C,"dose: 0.75 mg/kg/injection, schedule: Q## X003 (ip), vehicle: saline",105 % of control
same,T/C,"dose: 0.75 mg/kg/injection, schedule: Q## X005 (ip), vehicle: carboxymethylcellulose (CMC)",117 % of control
same,T/C,"dose: 1.0 mg/kg/injection, schedule: Q01DX001 (ip), vehicle: other",94 % of control
same,T/C,"dose: 1.0 mg/kg/injection, schedule: Q01DX001 (ip), vehicle: saline",114 % of control and 115 % of control
same,T/C,"dose: 1.0 mg/kg/injection, schedule: Q01DX005 (ip), vehicle: carboxymethylcellulose (CMC)",110 % of control
same,T/C,"dose: 1.0 mg/kg/injection, schedule: Q01DX006 (iv), vehicle: carboxymethylcellulose (CMC)",96 % of control
same,T/C,"dose: 1.0 mg/kg/injection, schedule: Q01DX009 (ip), vehicle: carboxymethylcellulose (CMC)",116 % of control
same,T/C,"dose: 1.0 mg/kg/injection, schedule: Q01DX009 (ip), vehicle: other",114 % of control
same,T/C,"dose: 1.0 mg/kg/injection, schedule: Q01DX015 (im), vehicle: carboxymethylcellulose (CMC)",101 % of control
same,T/C,"dose: 1.0 mg/kg/injection, schedule: Q01DX015 (sc), vehicle: carboxymethylcellulose (CMC)",105 % of control
same,T/C,"dose: 1.0 mg/kg/injection, schedule: Q01DX017 (ip), vehicle: carboxymethylcellulose (CMC)",163 % of control
same,T/C,"dose: 1.0 mg/kg/injection, schedule: Q01DX Z (ip), vehicle: saline",115 % of control
same,T/C,"dose: 1.0 mg/kg/injection, schedule: Q02DX009 (ip), vehicle: carboxymethylcellulose (CMC)",154 % of control
same,T/C,"dose: 1.0 mg/kg/injection, schedule: Q## X002 (ip), vehicle: carboxymethylcellulose (CMC)",88 % of control
same,T/C,"dose: 1.0 mg/kg/injection, schedule: Q## X003 (ip), vehicle: carboxymethylcellulose (CMC)",95 % of control
same,T/C,"dose: 1.0 mg/kg/injection, schedule: Q## X008 (ip), vehicle: carboxymethylcellulose (CMC)",88 % of control
same,T/C,"dose: 1.0 mg/kg/injection, schedule: Q## X024 (ip), vehicle: carboxymethylcellulose (CMC)",93 % of control
same,T/C,"dose: 1.0 mg/kg/injection, schedule: Q#A X034 (ip), vehicle: carboxymethylcellulose (CMC)",170 % of control
same,T/C,"dose: 1.5 mg/kg/injection, schedule: Q01DX001 (ip), vehicle: carboxymethylcellulose (CMC)",117 % of control
same,T/C,"dose: 1.5 mg/kg/injection, schedule: Q01DX001 (ip), vehicle: saline",114 % of control
same,T/C,"dose: 1.5 mg/kg/injection, schedule: Q01DX013 (ip), vehicle: saline",124 % of control
same,T/C,"dose: 1.5 mg/kg/injection, schedule: Q02DX005 (ip), vehicle: saline",122 % of control
same,T/C,"dose: 1.5 mg/kg/injection, schedule: Q02DX009 (ip), vehicle: carboxymethylcellulose (CMC)",162 % of control
same,T/C,"dose: 1.6 mg/kg/injection, schedule: Q01DX013 (ip), vehicle: saline",163 % of control
same,T/C,"dose: 2.0 mg/kg/injection, schedule: Q01DX001 (ip), vehicle: other",108 % of control
same,T/C,"dose: 2.0 mg/kg/injection, schedule: Q01DX001 (ip), vehicle: saline",116 % of control and 123 % of control
same,T/C,"dose: 2.0 mg/kg/injection, schedule: Q01DX005 (ip), vehicle: carboxymethylcellulose (CMC)",123 % of control
same,T/C,"dose: 2.0 mg/kg/injection, schedule: Q01DX006 (iv), vehicle: carboxymethylcellulose (CMC)",121 % of control
same,T/C,"dose: 2.0 mg/kg/injection, schedule: Q01DX009 (ip), vehicle: other",177 % of control
same,T/C,"dose: 2.0 mg/kg/injection, schedule: Q01DX009 (ip), vehicle: saline",166 % of control
same,T/C,"dose: 2.0 mg/kg/injection, schedule: Q01DX015 (im), vehicle: carboxymethylcellulose (CMC)",121 % of control
same,T/C,"dose: 2.0 mg/kg/injection, schedule: Q01DX015 (ip), vehicle: carboxymethylcellulose (CMC)",195 % of control
same,T/C,"dose: 2.0 mg/kg/injection, schedule: Q01DX015 (oral), vehicle: carboxymethylcellulose (CMC)",101 % of control
same,T/C,"dose: 2.0 mg/kg/injection, schedule: Q01DX015 (sc), vehicle: carboxymethylcellulose (CMC)",114 % of control
same,T/C,"dose: 2.0 mg/kg/injection, schedule: Q01DX017 (ip), vehicle: carboxymethylcellulose (CMC)",184 % of control
same,T/C,"dose: 2.0 mg/kg/injection, schedule: Q01DX Z (ip), vehicle: saline",106 % of control
same,T/C,"dose: 2.0 mg/kg/injection, schedule: Q02DX009 (ip), vehicle: carboxymethylcellulose (CMC)",192 % of control
same,T/C,"dose: 2.0 mg/kg/injection, schedule: Q## X002 (ip), vehicle: carboxymethylcellulose (CMC)",100 % of control
same,T/C,"dose: 2.0 mg/kg/injection, schedule: Q## X003 (ip), vehicle: carboxymethylcellulose (CMC)",113 % of control
same,T/C,"dose: 2.0 mg/kg/injection, schedule: Q## X005 (ip), vehicle: carboxymethylcellulose (CMC)",150 % of control
same,T/C,"dose: 2.0 mg/kg/injection, schedule: Q## X008 (ip), vehicle: carboxymethylcellulose (CMC)",97 % of control
same,T/C,"dose: 2.0 mg/kg/injection, schedule: Q## X016 (ip), vehicle: carboxymethylcellulose (CMC)",97 % of control
same,T/C,"dose: 2.0 mg/kg/injection, schedule: Q## X024 (ip), vehicle: carboxymethylcellulose (CMC)",103 % of control
same,T/C,"dose: 3.0 mg/kg/injection, schedule: Q01DX001 (ip), vehicle: carboxymethylcellulose (CMC)",115 % of control
same,T/C,"dose: 3.0 mg/kg/injection, schedule: Q01DX001 (ip), vehicle: saline",118 % of control
same,T/C,"dose: 3.0 mg/kg/injection, schedule: Q02DX009 (ip), vehicle: carboxymethylcellulose (CMC)",151 % of control
same,T/C,"dose: 3.0 mg/kg/injection, schedule: Q## X005 (ip), vehicle: carboxymethylcellulose (CMC)",152 % of control
same,T/C,"dose: 3.2 mg/kg/injection, schedule: Q01DX015 (ip), vehicle: carboxymethylcellulose (CMC)",163 % of control
same,T/C,"dose: 4.0 mg/kg/injection, schedule: Q01DX001 (ip), vehicle: other",97 % of control
same,T/C,"dose: 4.0 mg/kg/injection, schedule: Q01DX001 (ip), vehicle: saline",104 % of control
same,T/C,"dose: 4.0 mg/kg/injection, schedule: Q01DX006 (iv), vehicle: carboxymethylcellulose (CMC)",122 % of control
same,T/C,"dose: 4.0 mg/kg/injection, schedule: Q01DX009 (ip), vehicle: carboxymethylcellulose (CMC)",114 % of control
same,T/C,"dose: 4.0 mg/kg/injection, schedule: Q01DX009 (ip), vehicle: other",101 % of control
same,T/C,"dose: 4.0 mg/kg/injection, schedule: Q01DX015 (im), vehicle: carboxymethylcellulose (CMC)",94 % of control
same,T/C,"dose: 4.0 mg/kg/injection, schedule: Q01DX015 (oral), vehicle: carboxymethylcellulose (CMC)",104 % of control
same,T/C,"dose: 4.0 mg/kg/injection, schedule: Q01DX015 (sc), vehicle: carboxymethylcellulose (CMC)",115 % of control
same,T/C,"dose: 4.0 mg/kg/injection, schedule: Q02DX009 (ip), vehicle: carboxymethylcellulose (CMC)",259 % of control
same,T/C,"dose: 4.0 mg/kg/injection, schedule: Q## X002 (ip), vehicle: carboxymethylcellulose (CMC)",106 % of control
same,T/C,"dose: 4.0 mg/kg/injection, schedule: Q## X005 (ip), vehicle: carboxymethylcellulose (CMC)",170 % of control
same,T/C,"dose: 4.0 mg/kg/injection, schedule: Q## X008 (ip), vehicle: carboxymethylcellulose (CMC)",104 % of control
same,T/C,"dose: 4.0 mg/kg/injection, schedule: Q## X016 (ip), vehicle: carboxymethylcellulose (CMC)",97 % of control
same,T/C,"dose: 6.0 mg/kg/injection, schedule: Q02DX009 (ip), vehicle: carboxymethylcellulose (CMC)",113 % of control
same,T/C,"dose: 8.0 mg/kg/injection, schedule: Q01DX001 (ip), vehicle: carboxymethylcellulose (CMC)",98 % of control
same,T/C,"dose: 8.0 mg/kg/injection, schedule: Q01DX001 (ip), vehicle: other",101 % of control
same,T/C,"dose: 8.0 mg/kg/injection, schedule: Q01DX015 (oral), vehicle: carboxymethylcellulose (CMC)",97 % of control
same,T/C,"dose: 8.0 mg/kg/injection, schedule: Q## X002 (ip), vehicle: carboxymethylcellulose (CMC)",116 % of control
same,T/C,"dose: 16.0 mg/kg/injection, schedule: Q01DX015 (oral), vehicle: carboxymethylcellulose (CMC)",101 % of control
same,T/C,"dose: 32.0 mg/kg/injection, schedule: Q01DX015 (oral), vehicle: carboxymethylcellulose (CMC)",109 % of control
same,T/C,"dose: 62.5 micrograms/kg/injection, schedule: Q01DX Z (ip), vehicle: saline",108 % of control
same,T/C,"dose: 125.0 micrograms/kg/injection, schedule: Q01DX Z (ip), vehicle: saline",109 % of control
same,T/C,"dose: 250.0 micrograms/kg/injection, schedule: Q01DX Z (ip), vehicle: saline",114 % of control
